# Laboratory results from patent US6596498B1, “Bone stimulating factor” (Osteopharm Inc., priority 1993, dated 2003).
# “Also recorded” adds a separate entry of the source. Ends that are not written are not given here.
# Key:
# intact rats [1] = assay: Bone mineral apposition rate by tetracycline labelling in intact rats; assay type: in vivo, rat
# intact rats [2] = assay: as above; assay type: in vivo, rat; remark: listed apart in the source
# Text: Tetracycline is excited by long UV light (i.e., with a range close to the blue range) and a bright yellow fluorescence is emitted, which fluorescence is detectable in bone sections viewed with a fluorescence microscope. Tetracycline labels a bone surface when a newly formed collagen matrix begins to incorporate calcium and when such surface is sectioned, the tetracycline appears as a yellow fluorescent band. A subsequently administered dose of tetracycline appears as a second band located superficial to the first band. The distance between the two bands represent the thickness of bone matrix formed in the interval between the two doses. The rate of bone deposition can be calculated by dividing the distance with the time interval between doses. Errors can be introduced by cuts which are not perpendicular to the growing bone surface. To reduce this error, only sites in which the two bands were distinct and parallel to each other were used. Measurements made on 10 randomly chosen sites fulfilling this requirement were chosen to give readings close to the arithmetic mean of the rate.
# The measuring system used was a Leitz scanning light microscope photometer MPV-CD with a UV source being provided by a 100 W stabilized mercury burner. Sections were generally magnified using 16× objective using a moving scanning slit, the intensity of the fluorescent band was amplified and recorded. The light signal was transformed into digital output and the profile of the tetracycline intensity recorded. The instrument carries a mechanical error of less than 5%. The distance measured was periodically calibrated with a microscopic grid and a good correlation was found, as shown in FIG. 2.
# Intact 400-420 g male rats were used for testing. A control group received the carrier buffer of 50 mM sodium phosphate (pH 7.2). […]
# The unstained plastic embedded sections were viewed under a fluorescence microscope with a ×16 objective and ×10 eyepieces systematically to cover the trabecular bone in the space enclosed by the endosteal surface. […]
# ovariectomized rats [3] = assay: Bone mineral apposition rate in ovariectomized rats; assay type: in vivo, rat; conditions: 100 μg s.c. every 24 hours for 28 days; lower metaphysis of left femur; untreated OVX 0.59, sham 0.85, intact 0.86
# Method: Ovariectomies were performed on six female Sprague-Dawley rats, each sedated with 1 mg of sodium barbiturate I.P. Sham operations were carried out a second group of six rats. The rats were given two weeks to recover from the operations. The six ovariectomized rats were injected subcutaneously with 100 μl of a 0.1% acetic acid solution containing 100 μg of the chemically synthesized peptide (SEQ ID NO:11) every 24 hours for 28 days. […] A second group of six ovariectomized rats, was similarly treated with a 0.1% acetic acid solution containing no peptide over the same 28 day period. A third group of six rats, each of which had undergone the sham operation, was similarly treated with a 0.1% acetic acid solution containing no peptide over the same 28 day period. A fourth group of six intact rats was similarly treated with a 0.1% acetic acid solution containing no peptide over the same 28 day period. The bone mineral apposition rate was determined, as described previously, by measurement of the lower metaphysis of the left femur. The results are tabulated in Table Six and graphically depicted in FIG. 25.
# ovariectomized rats [4] = assay: Right femoral bone calcium density of ovariectomized rats; assay type: in vivo, rat
# Method: Ovariectomies were performed on six female Sprague-Dawley rats, each sedated with 1 mg of sodium barbiturate I.P. Sham operations were carried out a second group of six rats. The rats were given two weeks to recover from the operations. The six ovariectomized rats were injected subcutaneously with 100 μl of a 0.1% acetic acid solution containing 100 μg of the chemically synthesized peptide (SEQ ID NO:11) every 24 hours for 28 days. […] The right femur of each rat was decalcified separately. The decalcification fluid consisted of 10% formic acid (v/v) and 5% sodium citrate (w/v) at pH 3.0. Each bone was placed in 6 ml of the decalcification fluid. The fluid was […] days, again after another 4 days, again after another 2 days, and again after another 3 days. After another 2 days, the decalcification fluid was removed and replaced by deionized water, and the sample agitated for 2 days. The water changed after two days and again after another day. […] The volume of each right femur was determined by determining the volume of water displaced when the bone was immersed in water. The calcium concentration of each sample was determined according to standard methods and the calcium density of each bone calculated. […] The right femurs were decalcified and calcium density determined as before.
# [5] = 24 mg/kg of body weight intravenously, rat; serum level by bioassay; cited from earlier work
# ovariectomized rats [6] = assay: Autopsy of ovariectomized rats after daily peptide injection; assay type: in vivo, rat; conditions: 100 μg s.c. daily for eight weeks
# Method: The six ovariectomized rats were injected subcutaneously with 100 μl of a 0.1% acetic acid solution containing 100 μg of the chemically synthesized peptide (SEQ ID NO:11) every 24 hours for 28 days. […] Postmortem blood was taken by cardiac puncture and serum frozen until analyzed. A full autopsy was performed on each rat. […] Eight weeks after ovariectomization, five ovariectomized rats were injected subcutaneously with 100 μl of a 0.1% acetic acid solution containing 100 μg of the chemically synthesized peptide in which the N-terminal amino group was modified with an acetyl group (SEQ ID NO:12). This was done every 24 hours for eight weeks. […] Postmortem blood was taken by cardiac puncture and serum frozen until analyzed. An autopsy was performed on each rat.
# [7] = tested on: parathyroidectomized rats; assay: Histological evaluation of selected tissues for toxic lesions after miniosmotic pump implantation; assay type: in vivo, rat; conditions: about 25 μg per day by miniosmotic pump, about 31 days
# Method: A miniosmotic pump (Alzet) was loaded with about 1.5 ml of the chemically synthesized peptide having an N-terminal acetyl group (SEQ ID NO:12) in 0.1% acetic acid so as to give a calculated daily delivery of about 25 μg per day. A pump was implanted under the subcutaneous fascia of the dorsal aspect of the left side of the thorax of five rats which had been parathyroidectomized seven days earlier. Five similarly parathyroidectomized rats received similar implants containing only 0.1% acetic acid. Five intact rats were also used as controls.
# Histological evaluation of selected tissues of the five rats of each of the groups indicated in Table Four were carried out microscopically.
# [8] = 0.1 ml of 1 mg per ml solution, subcutaneous, right thigh, lower metaphysis of right femur, control 1.02
molecule,measurement,setting,value
GIGKRTNEHTADAKIKPNTLHKKAAETLMVLDQNQP [SEQ ID NO:13],bone apposition rate,"intact rats [1]; 0.1 ml of 1 mg per ml solution s.c., compared with control and normal peptide",significantly greater than that for those of the control group but below the bone apposition rate shown for the rats injected with the normal peptide
same,"bone mineral apposition rate, Mean",intact rats [1]; [8],1.35 μm/d
GIGKRTNEHTADCKIKPNTLHKKAAETLMVLDQNQP [SEQ ID NO:11],"bone mineral apposition rate, Mean","intact rats [1]; 50 μg single intramuscular injection, lower femoral epiphysis, control 0.85",1.15 μm/day
same,"bone mineral apposition rate, Mean","intact rats [1]; 100 μg single intramuscular injection, lower femoral epiphysis, control 0.85",1.32 μm/day
same,"bone mineral apposition rate, Mean",intact rats [1]; [8],1.67 μm/d
same,dose dependency of stimulant effect,"intact rats [1]; 25-100 μg, intramuscular",increases with the amount of peptide administered
same,"bone apposition rate, Mean","intact rats [2]; 25 μg in 1 ml, single intramuscular injection, lower metaphysis of right femur, vehicle control 1.03",1.35 μm/d
same,"bone mineral apposition rate, Mean","intact rats [2]; 25 μg single intramuscular injection, lower femoral epiphysis, control 0.85",1.05 μm/day
same,"bone mineral apposition rate, Mean",ovariectomized rats [3],0.90 μm/day
same,bone calcium concentration,"ovariectomized rats [4]; 100 μg s.c. daily for 28 days, ovariectomized rats",appears to be normal
same,"Right Femoral Calcium Concentration, Mean","ovariectomized rats [4]; 100 μg s.c. every 24 hours for 28 days, starting two weeks after ovariectomy, untreated OVX 6.61, sham 7.45, intact 7.69",7.57 µmol/mL
CN(C)[C@@H]1C(O)=C(C(N)=O)C(=O)[C@@]2(O)C(O)=C3C(=O)c4c(O)cccc4[C@@](C)(O)[C@H]3C[C@@H]12 [tetracycline],clearance from the circulation,[5],cleared from the circulation within half an hour
"expressed polypeptide: human polypeptide (SEQ ID NO:11 sequence) expressed in E. coli JM 103 from pUC 8 plasmid, purified by C3 HPLC (GIGKRTNEHTADCKIKPNTLHKKAAETLMVLDQNQP)",effect on bone formation,"intact rats [2]; 0.7 and 0.3 O.D. (280 nm) units injected, intact 400-420 g male rats vs carrier buffer",appears to have a stimulant effect on bone formation; also recorded: showed biological activity
Ac-GIGKRTNEHTADCKIKPNTLHKKAAETLMVLDQNQP [SEQ ID NO:12],pathology at autopsy,ovariectomized rats [6],No obvious pathology was observed
same,histological evaluation of selected tissues (toxic lesions),[7],No evidence of toxic lesions was found
